Measured values published in PMC5805504 (Oncotarget, 2017).
Read-outs that look alike come from different tables or passages of the source.

Assays:
TGFβRII = TGFβRII (Homo sapiens, UniProt P37173); assay: Confirmatory TGFβRII binding assay
pSMAD in NIH3T3 cells = assay: pSMAD inhibition in NIH3T3 cells; format: cell-based; conditions: Mus musculus, read-out: IC50, inhibition of pSMAD, data not shown
[1] = system: pSMAD in Calu6 and EMT6-LM2 tumors; assay: PK/PD profile from Calu6 and EMT6-LM2 in vivo target inhibition studies (statements not split by model); parameters: species or system mice
[2] = system: murine NK and CD8+ T cells; assay: TGFβ suppression of murine NK and CD8+ T cell cytokine secretion; format: cell-based, BALB/c mice; conditions: TGFβ1 10 ng/ml, 0.1 μM to 10 μM, ELISA
Procedure: Mouse NK cells and CD8^+ T cells were purified from female BALB/C mouse splenocytes by magnetic antibody sorting (Miltenyi Biotec) following the manufacturer's instructions. After isolation, the cells were re-suspended separately in complete media (RPMI1640, 5% FBS, 10 mM HEPES, 1×NEAA, 1×L-Glu, sodium pyruvate, 1×Penn/Strep, 0.055 mM βME, 50 U/ml IL2) and plated in flat 96-well plates at 37°C for 5-7 days at a density of 5 × 10^4/well, in triplicate, and stimulated with Treg Suppression Inspector beads (Miltenyi Biotec, Cat# 130-093-627). Cells were cultured with or without TGFβ1 at 10 ng/ml. […] Cytokine release in supernatants was measured by ELISA (R&D, mouse Granzyme B: DY1865; mouse INFγ:3321-1H-6). One-way ANOVA with Dunnett's test was used to compare the TGFβ+Gal treatments to the TGFβ+DMSO treatment.

[3] = system: human NK and CD8+ T cells; assay: TGFβ1 suppression of human NK and CD8+ T cell cytokine secretion; format: cell-based; conditions: TGFβ1 10 ng/ml, ELISA
Procedure: Blood from healthy donors were obtained from the New York Blood Center. After isolation of PBMCs via high density gradient centrifugation with Ficoll-Paque, NK cells and CD8^+ T cells were purified from PBMCs by magnetic antibody sorting (Miltenyi Biotec) following the manufacturer's instructions. Purified CD8^+ T cells and NK cells were re-suspended separately in complete media (RPMI1640, 5% FBS, 10mM HEPES, 1×NEAA, 1×L-glu, sodium pyruvate, 1×penn/strep, 0.055 mM βME, 50 U/ml IL-2) and plated in 96-well plates at 37°C for 2 days at a density of 5 × 10^4/well, in triplicates. CD8^+ T cells were stimulated with human T cell activation/expansion beads (Miltenyi Biotec; 130-091-441), while NK cells were stimulated with the same beads plus 10 U/ml IL-2. Cells were cultured with or without TGFβ1 at 10 ng/ml. […] Cytokine release in supernatants was measured by ELISA (R&D; human Granzyme B: DY2906; human INFγ: DY285-05). One-way ANOVA with Dunnett's test was used to compare the TGFβ+Gal treatments to the TGFβ+DMSO treatment.

[4] = system: pSMAD in 13762 rat mammary carcinoma tumor; assay: 13762 rat tumor model, pSMAD in tumor tissue; format: in vivo, Fischer 344 rats; conditions: Table 4, read-out: IC50 of pSMAD (%CV)
Procedure: Fischer 344 rats from Taconic Farms weighing 150 to 160 grams were acclimatized for 1 week prior to study initiation and had ad libitum access to food. Rats were shaved in the implant area then given a subcutaneous flank injection of 5 × 10^6 13762 rat mammary carcinoma cells in a 1:1 (v/v) mixture with Matrigel in media. […] Tumor, PBMCs, and plasma were collected at 0.5, 1, 1.5, 2, 4, 8, 16, and 24 hours for further analysis.
For correlation of pSMAD modulation in 13762 rat mammary carcinoma tumors and PBMCs, data were normalized using an analysis of co-variance of log pSMAD versus log tSMAD and treatment group. The slope (b) from this analysis was used to normalize the pSMAD values using pSMAD/(tSMAD)^b. Percent inhibition was calculated by the following formula: 100-(y/x)*100 where y = normalized pSMAD value and x = mean normalized pSMAD in the vehicle control. Linear correlation was used to compare tumor and PBMC measurements. In addition, using a cutoff of 50%, a 2 × 2 contingency table analysis was performed using Fisher's exact test.

pSMAD in human PBMCs = system: pSMAD in human PBMCs; parameters: method as in PMID 17453744; conditions: cited from earlier work
[5] = parameters: method as in PMID 25424852; conditions: patients with glioblastoma; cited from earlier work
[6] = second line glioblastoma; cited from earlier work
[7] = parameters: method as in earlier work; conditions: patients with pancreas cancer; cited from earlier work
in vivo = conditions: female, BALB/c, mouse, plasma, po, 25 mg/kg
Procedure: (§1) For in vivo measurement of tumor cell pSMAD activity, tumors were harvested from mice at the indicated time points post-treatment, snap frozen in liquid nitrogen, then pulverized in lysis buffer [EDTA 5 mM, EGTA 5 mM, sodium pyrophosphate 30 mM, sodium chloride 6.7 mM, sodium fluoride 50 mM, and 1% triton in water, pH 7.4 with protease and phosphatase inhibitors (Sigma, p8340, p5726, p0044) and sodium orthovanadate 2.5 mM]. Protein concentration was estimated with DC protein assay kit (BioRad).
(§2) Percent inhibition of normalized pSMAD2 levels was calculated by first determining the ratio of tSMAD to pSMAD values for the vehicle group. […] Percent inhibition for compound treated groups was determined relative to the minimum pSMAD inhibition of the vehicle group using the formula: [(100- (normalized pSMAD in the experimental treatment group/normalized pSMAD in the vehicle treated group)]. IC50 of pSMAD inhibition was calculated for the data using non-linear regression to fit the standard four parameter logistic model using GraphPad Prism 6.
(§3) Female athymic nu/nu mice or immune competent syngenic BALB/c mice (Charles River or Taconic Farms, respectively, 22 to 28 grams) were maintained in microisolator cages, received food and water ad libitum, and were quarantined for 1 week before experimental manipulation. Sub-confluent Calu6 human non-small cell lung cancer (NSCLC) cells were injected subcutaneously in the flank of nude mice (1x 10^7cells/per animal) in 0.2 mL of culture medium mixed with Matrigel (BD Biosciences, 1:1 v/v). EMT6-LM2 murine triple negative breast cancer tumor cells (5 × 10^5 cells/per animal in the absence of matrigel) were implanted on the flank of BALB/c mice. EMT6-LM2 cells were generated from parental EMT6 cells which were passaged twice from spontaneous lung metastases (LM) following subcutaneous growth. When the tumor volume reached ~250 mm^3, mice were randomized and separated into treatment groups.
(§4) Tumors and plasma were collected 2 hours post dosage for analysis of pSMAD and compound levels.
(§5) Tumors and plasma were collected at the indicated time points (0.5, 1, 1.5, 2, 4, 8, and 16 hours) for analysis of pSMAD and compound levels.
(§6) Percent target inhibition was calculated as described above then was modeled as a function of either dose or plasma concentration.

[8] = clinical; cited from earlier work
[9] = system: CEREP diversity panel, 65 targets; assay: CEREP diversity panel; conditions: at 10 μM, duplicate; data not shown
U87MG xenograft tumors = assay: U87MG glioblastoma xenograft tumor model; conditions: galunisertib 25 mg/kg BID oral; lomustine (CCNU) 30 mg/kg single intraperitoneal dose; alone or combined
Procedure: Five million U87MG glioblastoma cells, obtained from ATCC (Manassas, VA), were injected subcutaneously in the flank of 8- to 9-week old, female, athymic nude mice (Harlan, Indianapolis, IN) in a 1:1 mixture of 1x PBS and matrigel (Becton Dickinson, Bedford, MA). Mice were monitored daily for palpable tumors. […] The tumor volumes were recorded at regular intervals following treatment.

pSMAD in 4T1-LP cells = assay: TGFβ1-induced pSMAD inhibition in 4T1-LP cells (ELISA)
Procedure: Next, the samples were homogenized for 15 seconds using Bioruptor® UCD-200 by Diagenode at medium power.
Total and pSMAD2/3 levels were assessed independently on two separate ELISA plates. […] To the pSMAD ELISA plate, 100 μL per well of lysate (ranging from 0.04-0.1 mg total protein) was added to the appropriate wells. To the total SMAD ELISA plate, 10% of the total protein that was added to the pSMAD, was added to the appropriate wells (0.004-0.01 mg protein final). A standard curve was also added to both ELISA plates (p- and tSMAD plates) using recombinant HIS-pSMAD2 protein (Eli Lilly and Company). Plates were incubated overnight then washed four times with wash buffer. […] Following one hour of incubation, plates were washed and developed using 3, 3’, 5, 5’-tetramethylbenzidine substrate (TMB; Surmodics/BioFX #TMBW-0100-01) and absorbance (OD) was read at 450 nm on a plate reader.
Percent inhibition of normalized pSMAD2 levels was calculated by first determining the ratio of tSMAD to pSMAD values for the vehicle group. […]

Sequence of TGFβRII (P37173 23-567): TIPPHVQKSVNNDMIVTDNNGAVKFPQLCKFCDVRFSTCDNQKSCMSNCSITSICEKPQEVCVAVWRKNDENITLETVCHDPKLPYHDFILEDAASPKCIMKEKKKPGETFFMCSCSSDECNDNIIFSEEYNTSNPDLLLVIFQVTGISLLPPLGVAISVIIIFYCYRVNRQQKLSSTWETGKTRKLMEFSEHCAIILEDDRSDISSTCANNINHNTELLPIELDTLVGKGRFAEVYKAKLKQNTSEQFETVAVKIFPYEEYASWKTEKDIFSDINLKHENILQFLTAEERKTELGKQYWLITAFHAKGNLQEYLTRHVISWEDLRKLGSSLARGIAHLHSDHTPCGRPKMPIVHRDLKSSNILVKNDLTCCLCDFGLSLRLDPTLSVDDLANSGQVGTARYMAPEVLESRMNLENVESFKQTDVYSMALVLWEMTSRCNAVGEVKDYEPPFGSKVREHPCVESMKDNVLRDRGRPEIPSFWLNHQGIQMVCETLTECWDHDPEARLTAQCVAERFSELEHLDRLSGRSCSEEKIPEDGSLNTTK
Procedure for pSMAD in Calu6 tumors: as §1, §2, §3, §4, §5, §6
Procedure for pSMAD in EMT6-LM2 tumors: as §1, §2, §3, §4, §5, §6

Compound: Cc1cccc(-c2nn3c(c2-c2ccnc4ccc(C(N)=O)cc24)CCC3)n1.O [galunisertib, 4-[2-(6-methylpyridin-2-yl)-5,6-dihydro-4H-pyrrolo[1,2-b]pyrazol-3-yl]quinoline-6-carboxamide monohydrate]
- IC50 (TGFβRII): 0.43 µM
- IC50 (pSMAD in NIH3T3 cells): 0.064 µM
- TED90 ([1]; oral, data not shown): 75 mg/kg
- target inhibition in vivo over 12 hours ([1]; single oral dose with an exposure of […]-5 μM): ≥ 20%
- TGFβ1 suppression of IFNγ and granzyme B secretion [2]: prevented the suppression of IFNγ and granzyme B secretion
- TGFβ1 suppression of IFNγ and granzyme B secretion [3]: prevented the suppression of IFNγ and granzyme B secretion
- IC50 [4]: 0.719 µM
- pSMAD inhibition at maximum plasma exposure (pSMAD in EMT6-LM2 tumors; EMT6-LM2, at 30 minutes): ~ 70%
- TED50, total effective dose to inhibit 50% pSMAD (pSMAD in EMT6-LM2 tumors; EMT6-LM2, single oral dose, tumors 2 hours post dosage): 19.7 mg/kg
- maximum plasma exposure (pSMAD in EMT6-LM2 tumors; EMT6-LM2 time course, single oral dose): up to 6 μM
- pSMAD inhibition at maximum plasma exposure (pSMAD in Calu6 tumors; Calu6, at 30 minutes): ~ 70%
- TED50, total effective dose to inhibit 50% pSMAD (pSMAD in Calu6 tumors; Calu6, single oral dose, tumors 2 hours post dosage): 15.6 mg/kg
- maximum plasma exposure (pSMAD in Calu6 tumors; Calu6 time course, single oral dose): up to 6 μM
- pSMAD in human PBMCs ex vivo (pSMAD in human PBMCs): inhibit pSMAD
- clinical activity, phase I [5]: promising activity
- clinical outcome versus lomustine, phase II [6]: failed to show improvement over lomustine
- clinical outcome versus gemcitabine, phase II [7]: superiority over gemcitabine
- Tmax (in vivo): 30 min
- tolerability as oral cancer therapy [8]: well-tolerated
- inhibition against all 65 targets [9]: < 25%
- anti-tumor effect (tumor volume) (U87MG xenograft tumors): modest anti-tumor effect
- IC50 (pSMAD in 4T1-LP cells; Mus musculus, read-out: IC50, pSMAD activity, 4T1-LP, TGFβ1 10 ng/ml, ELISA): 1.77 µM
- IC50 (pSMAD in 4T1-LP cells; read-out: IC50, pSMAD activity, 4T1-LP, TGFβ1 10 ng/ml, ELISA): 1.77 µM
